Test results as given in publication PMC5423977, “Safety, pharmacokinetics, and pharmacodynamics of BMS-986142, a novel reversible BTK inhibitor, in healthy participants” (European Journal of Clinical Pharmacology, 2017).

Experiment: Safety and tolerability (adverse events), Study 1 SAD in healthy participants
Assay type: in vivo, human
[1] = Study 1 SAD group, BMS-986142-treated
[2] = Study 1 SAD, all BMS-986142 doses, n = 36

Cc1c(-c2c(F)cc(C(N)=O)c3[nH]c4c(c23)CC[C@H](C(C)(C)O)C4)cccc1-n1c(=O)c2cccc(F)c2n(C)c1=O [BMS-986142, 6-fluoro-5-(R)-(3-(S)-(8-fluoro-1-methyl-2,4-dioxo-1,2-dihydroquinazolin-3(4H)-yl)-2-methylphenyl)-2-(S)-(2-hydroxypropan-2-yl)-2,3,4,9-tetrahydro-1H-carbazole-8-carboxamide]
AE: Polyuria (SAD 100 mg, n = 6): 1 (16.7) n (%)
AE: Syncope (SAD 100 mg, n = 6): 0 n (%)
AE: Tension headache (SAD 100 mg, n = 6): 1 (16.7) n (%)
AE: Thermal burn (SAD 100 mg, n = 6): 0 n (%)
AE: Toothache (SAD 100 mg, n = 6): 0 n (%)
AE: Upper respiratory tract infection (SAD 100 mg, n = 6): 0 n (%)
AE: Vomiting (SAD 100 mg, n = 6): 1 (16.7) n (%)
Total participants with an event (SAD 100 mg, n = 6): 2 (33.3) n (%)
AE SOC: Gastrointestinal Disorders (SAD 300 mg, n = 6): 1 (16.7) n (%)
AE SOC: General disorders and administration site conditions (SAD 300 mg, n = 6): 0 n (%)
AE SOC: Infections and infestations (SAD 300 mg, n = 6): 0 n (%)
AE SOC: Injury, poisoning and procedural complications (SAD 300 mg, n = 6): 0 n (%)
AE SOC: Musculoskeletal and connective tissue disorders (SAD 300 mg, n = 6): 0 n (%)
AE SOC: Nervous system disorders (SAD 300 mg, n = 6): 0 n (%)
AE SOC: Renal and urinary disorders (SAD 300 mg, n = 6): 0 n (%)
AE SOC: Respiratory, thoracic and mediastinal disorders (SAD 300 mg, n = 6): 0 n (%)
AE: Aphthous stomatitis (SAD 300 mg, n = 6): 0 n (%)
AE: Chest pain (SAD 300 mg, n = 6): 0 n (%)
AE: Contusion (SAD 300 mg, n = 6): 0 n (%)
AE: Cough (SAD 300 mg, n = 6): 0 n (%)
AE: Diarrhoea (SAD 300 mg, n = 6): 0 n (%)
AE: Dizziness (SAD 300 mg, n = 6): 0 n (%)
AE: Headache (SAD 300 mg, n = 6): 0 n (%)
AE: Lip Dry (SAD 300 mg, n = 6): 1 (16.7) n (%)
AE: Muscle spasms (SAD 300 mg, n = 6): 0 n (%)
AE: Nausea (SAD 300 mg, n = 6): 0 n (%)
AE: Paraesthesia (SAD 300 mg, n = 6): 0 n (%)
AE: Polyuria (SAD 300 mg, n = 6): 0 n (%)
AE: Syncope (SAD 300 mg, n = 6): 0 n (%)
AE: Tension headache (SAD 300 mg, n = 6): 0 n (%)
AE: Thermal burn (SAD 300 mg, n = 6): 0 n (%)
AE: Toothache (SAD 300 mg, n = 6): 0 n (%)
AE: Upper respiratory tract infection (SAD 300 mg, n = 6): 0 n (%)
AE: Vomiting (SAD 300 mg, n = 6): 0 n (%)
Total participants with an event (SAD 300 mg, n = 6): 1 (16.7) n (%)
AE SOC: Gastrointestinal Disorders (SAD 900 mg, n = 6): 2 (33.3) n (%)
AE SOC: General disorders and administration site conditions (SAD 900 mg, n = 6): 1 (16.7) n (%)
AE SOC: Infections and infestations (SAD 900 mg, n = 6): 1 (16.7) n (%)
AE SOC: Injury, poisoning and procedural complications (SAD 900 mg, n = 6): 0 n (%)
AE SOC: Musculoskeletal and connective tissue disorders (SAD 900 mg, n = 6): 0 n (%)
AE SOC: Nervous system disorders (SAD 900 mg, n = 6): 2 (33.3) n (%)
AE SOC: Renal and urinary disorders (SAD 900 mg, n = 6): 0 n (%)
AE SOC: Respiratory, thoracic and mediastinal disorders (SAD 900 mg, n = 6): 1 (16.7) n (%)
AE: Aphthous stomatitis (SAD 900 mg, n = 6): 0 n (%)
AE: Chest pain (SAD 900 mg, n = 6): 1 (16.7) n (%)
AE: Contusion (SAD 900 mg, n = 6): 0 n (%)
AE: Cough (SAD 900 mg, n = 6): 1 (16.7) n (%)
AE: Diarrhoea (SAD 900 mg, n = 6): 1 (16.7) n (%)
AE: Dizziness (SAD 900 mg, n = 6): 1 (16.7) n (%)
AE: Headache (SAD 900 mg, n = 6): 2 (33.3) n (%)
AE: Lip Dry (SAD 900 mg, n = 6): 0 n (%)
AE: Muscle spasms (SAD 900 mg, n = 6): 0 n (%)
AE: Nausea (SAD 900 mg, n = 6): 1 (16.7) n (%)
AE: Paraesthesia (SAD 900 mg, n = 6): 1 (16.7) n (%)
AE: Polyuria (SAD 900 mg, n = 6): 0 n (%)
AE: Syncope (SAD 900 mg, n = 6): 0 n (%)
AE: Tension headache (SAD 900 mg, n = 6): 0 n (%)
AE: Thermal burn (SAD 900 mg, n = 6): 0 n (%)
AE: Toothache (SAD 900 mg, n = 6): 0 n (%)
AE: Upper respiratory tract infection (SAD 900 mg, n = 6): 1 (16.7) n (%)
AE: Vomiting (SAD 900 mg, n = 6): 0 n (%)
Total participants with an event (SAD 900 mg, n = 6): 2 (33.3) n (%)
AE SOC: Gastrointestinal Disorders (SAD any dose, n = 36): 5 (13.9) n (%)
AE SOC: General disorders and administration site conditions (SAD any dose, n = 36): 1 (2.8) n (%)
AE SOC: Infections and infestations (SAD any dose, n = 36): 2 (5.6) n (%)
AE SOC: Injury, poisoning and procedural complications (SAD any dose, n = 36): 1 (2.8) n (%)
AE SOC: Musculoskeletal and connective tissue disorders (SAD any dose, n = 36): 1 (2.8) n (%)
AE SOC: Nervous system disorders (SAD any dose, n = 36): 5 (13.9) n (%)
AE SOC: Renal and urinary disorders (SAD any dose, n = 36): 1 (2.8) n (%)
AE SOC: Respiratory, thoracic and mediastinal disorders (SAD any dose, n = 36): 1 (2.8) n (%)
AE: Aphthous stomatitis (SAD any dose, n = 36): 1 (2.8) n (%)
AE: Chest pain (SAD any dose, n = 36): 1 (2.8) n (%)
AE: Contusion (SAD any dose, n = 36): 1 (2.8) n (%)
AE: Cough (SAD any dose, n = 36): 1 (2.8) n (%)
AE: Diarrhoea (SAD any dose, n = 36): 1 (2.8) n (%)
AE: Dizziness (SAD any dose, n = 36): 1 (2.8) n (%)
AE: Headache (SAD any dose, n = 36): 4 (11.1) n (%)
AE: Lip Dry (SAD any dose, n = 36): 1 (2.8) n (%)
AE: Muscle spasms (SAD any dose, n = 36): 1 (2.8) n (%)
AE: Nausea (SAD any dose, n = 36): 1 (2.8) n (%)
AE: Paraesthesia (SAD any dose, n = 36): 1 (2.8) n (%)
AE: Polyuria (SAD any dose, n = 36): 1 (2.8) n (%)
AE: Syncope (SAD any dose, n = 36): 0 n (%)
AE: Tension headache (SAD any dose, n = 36): 1 (2.8) n (%)
AE: Thermal burn (SAD any dose, n = 36): 1 (2.8) n (%)
AE: Toothache (SAD any dose, n = 36): 0 n (%)
AE: Upper respiratory tract infection (SAD any dose, n = 36): 2 (5.6) n (%)
AE: Vomiting (SAD any dose, n = 36): 1 (2.8) n (%)
Total participants with an event (SAD any dose, n = 36): 8 (22.2) n (%)
Number of AEs reported [1]: 22 AEs
Participants with AEs [1]: 8 participants
AE: Cough [2]: 1 (2.8) n (%)
AE: Diarrhea [2]: 1 (2.8) n (%)
AE: Dizziness [2]: 1 (2.8) n (%)
AE: Headache/tension headache [2]: 5 (13.9) n (%)
AE: Nausea [2]: 1 (2.8) n (%)
AE: Thermal burns [2]: 1 (2.8) n (%)
AE: Upper respiratory tract infection [2]: 2 (5.6) n (%)
Subjects with AEs [2]: 8 (22.2) n (%)
Tolerability (healthy participants, alone and in combination with MTX (studies 1 and 2)): generally well tolerated
